The source of these data is PMC9518248, “Inhibition of Toxoplasma gondii by 1,2,4-triazole-based compounds: marked improvement in selectivity relative to the standard therapy pyrimethamine and sulfadiazine” (Journal of Enzyme Inhibition and Medicinal Chemistry, 2022).

Series [1] deals with mouse fibroblasts L929 cells. Kind of series: Cell viability assay (MTT, ISO 10993-5). In kind it is cell-based. Particulars: 24 h, highest dilution causing 30% or higher destruction of cells. As to the method:
Culture medium RPMI 1640, without phenol red (Biowest, Nuaille, France) supplemented with 10% FBS, 2 mM […] penicillin, 100 μg/mL streptomycin were used. Briefly, 1 × 10^4/well of L929 cells were placed in 96-well plates and incubated for 24 h at 37 °C and 10% CO2. Afterwards, the old culture medium was replaced with 100 μL of the compound, drug or inhibitor, diluted in culture medium and the cells treated for 24 h. Additionally, cells were treated with 0.03-4.0% concentration of DMSO as the solvent (data not shown). Then, 50 μL of 1 mg/mL of MTT solution in RPMI 1640 without phenol red was added to each well and incubated for 2 h at 37 °C and 10% CO2. Next, cell culture medium was aspirated carefully and 150 μL of DMSO was added to each well, and the plates were gently mixed. Then, 25 μL 0.1 M glycine buffer (pH 10.5) (Sigma-Aldrich) was added. The optical density at 570 nm using a multi-mode microplate reader SpectraMax® i3 (Syngen, Taipei City, Taiwan) was recorded. The results were expressed as a percentage of viability compared to untreated cells. All experiments were performed in triplicate. The reported methyl thiazolyltetrazole (MTT) method was used to study in vitro cytotoxic profile of the s-triazoles 1b-27b to the host cells (L929). Experiments were performed in accordance with the international standard IS0-10993-5:2009. […] The data for acyclic precursors 1a-27a are also included for comparison[39]^,[40].

Series [2] deals with T. gondii RH-GFP. Kind of series: Antiparasitic assay: T. gondii RH-GFP proliferation in Hs27 cells. Type of series: cell-based, Toxoplasma gondii. Particulars: for IC50: Toxoplasma gondii, T. gondii RH-GFP in Hs27 cells, 96 h, values above highest tested concentration extrapolated, read-out: IC50Tg; for SI: selectivity index, CC30 (L929)/IC50Tg.

Each structure is given as a SMILES string. In brackets after ≈: the same amount, converted by molar mass.

Consider `Cc1nc[nH]c1-c1n[nH]c(=S)n1-c1ccc(Cl)cc1` [6b, 4–(4-chlorophenyl)-5–(4-methylimidazol-5-yl)-1,2,4-triazole-3-thione], for which the melting point (usually the temperature, or range, at which the solid turns liquid) worked out at 255.8 °C. The CC30 in series [1] was found to be 460.26 µg/mL (≈ 1580 µM). In series [2], the IC50 was 267 µg/mL (≈ 914 µM) and the SI is given as 1.73.

The compound `Cc1nc[nH]c1-c1n[nH]c(=S)n1-c1ccccc1Br` [7b, 4–(2-bromophenyl)-5–(4-methylimidazol-5-yl)-1,2,4-triazole-3-thione] had a melting point of 235.6 °C. Moreover, the CC30 in series [1] is 2116.90 µg/mL (≈ 6300 µM). In addition, in series [2], the IC50 is 66.7 µg/mL (≈ 199 µM) and the SI worked out at 31.72.

With `Cc1nc[nH]c1-c1n[nH]c(=S)n1-c1cccc(Br)c1` [8b, 4–(3-bromophenyl)-5–(4-methylimidazol-5-yl)-1,2,4-triazole-3-thione], the melting point was found to be 299.7 °C. Also, the CC30 in series [1] is 660.09 µg/mL (≈ 1960 µM). Further, in series [2], the IC50 was 103 µg/mL (≈ 306 µM) and the SI is 6.41.

As for `Cc1nc[nH]c1-c1n[nH]c(=S)n1-c1ccc(Br)cc1` [9b, 4–(4-bromophenyl)-5–(4-methylimidazol-5-yl)-1,2,4-triazole-3-thione], the melting point was 265.9 °C. Also, in series [1], the CC30 stood at 225.58 µg/mL (≈ 671 µM). In series [2], the IC50 is 153 µg/mL (≈ 455 µM) and the SI came to 1.48.

`Cc1nc[nH]c1-c1n[nH]c(=S)n1-c1ccccc1I` [10b, 4–(2-iodophenyl)-5–(4-methylimidazol-5-yl)-1,2,4-triazole-3-thione] had a melting point of 297.6 °C. In series [1], this compound had a CC30 of 1021.41 µg/mL (≈ 2670 µM). In series [2], the IC50 is 80.3 µg/mL (≈ 209 µM) and the SI is 12.73.

In turn, `Cc1nc[nH]c1-c1n[nH]c(=S)n1-c1cccc(I)c1` [11b, 4–(3-iodophenyl)-5–(4-methylimidazol-5-yl)-1,2,4-triazole-3-thione] registered a melting point of 276.5 °C. In series [1], this compound came in with a CC30 of 625.17 µg/mL (≈ 1630 µM). Besides, in series [2], the IC50 was 36.4 µg/mL (≈ 95.1 µM) and the SI is 17.16.

Compound `Cc1nc[nH]c1-c1n[nH]c(=S)n1-c1ccc(I)cc1` [12b, 4–(4-iodophenyl)-5–(4-methylimidazol-5-yl)-1,2,4-triazole-3-thione] yielded a melting point of 290 °C. The compound also yielded a CC30 in series [1] of 483.06 µg/mL (≈ 1260 µM). Moreover, in series [2], the IC50 was 99.1 µg/mL (≈ 259 µM) and the SI was 4.88.

Take `Cc1ccccc1-n1c(-c2[nH]cnc2C)n[nH]c1=S` [14b, 5–(4-methylimidazol-5-yl)-4–(2-methylphenyl)-1,2,4-triazole-3-thione]: the melting point is 249.9 °C. The same compound displayed a CC30 in series [1] of 2414.35 µg/mL (≈ 8900 µM). Moreover, in series [2], the IC50 is 77.3 µg/mL (≈ 285 µM) and the SI is on record as 31.23.

As for `Cc1cccc(-n2c(-c3[nH]cnc3C)n[nH]c2=S)c1` [15b, 5–(4-methylimidazol-5-yl)-4–(3-methylphenyl)-1,2,4-triazole-3-thione], the melting point was 248.7 °C. Also, the CC30 in series [1] turned out to be 579.43 µg/mL (≈ 2140 µM). Also, in series [2], the IC50 was 79.1 µg/mL (≈ 292 µM) and the SI is listed as 7.33.

As to `Cc1ccc(-n2c(-c3[nH]cnc3C)n[nH]c2=S)cc1Cl` [17b, 4–(3-chloro-4-methylphenyl)-5–(4-methylimidazol-5-yl)-1,2,4-triazole-3-thione], the melting point is 264.1 °C. In series [1], the CC30 is listed as 414.57 µg/mL (≈ 1360 µM). Also, in series [2], the IC50 is 175 µg/mL (≈ 572 µM) and the SI is 2.37.

In the case of `COc1ccc(-n2c(-c3[nH]cnc3C)n[nH]c2=S)cc1OC` [21b, 4–(3,4-dimethoxyphenyl)-5–(4-methylimidazol-5-yl)-1,2,4-triazole-3-thione], the melting point came to 213.4 °C. Also, the CC30 in series [1] was determined as 318.42 µg/mL (≈ 1000 µM). Moreover, in series [2], the IC50 is 139 µg/mL (≈ 438 µM) and the SI is reported as 2.29.

With `CCOc1ccc(-n2c(-c3[nH]cnc3C)n[nH]c2=S)cc1` [22b, 4–(4-ethoxyphenyl)-5–(4-methylimidazol-5-yl)-1,2,4-triazole-3-thione], the melting point stood at 239.9 °C. For the same compound, the CC30 in series [1] was 1881.91 µg/mL (≈ 6240 µM). For the same compound, in series [2], the IC50 was 64.2 µg/mL (≈ 213 µM) and the SI turned out to be 29.33.

For the compound `Cc1nc[nH]c1-c1n[nH]c(=S)n1-c1c(C(C)C)cccc1C(C)C` [24b, 4–(2,6-diisopropylphenyl)-5–(4-methylimidazol-5-yl)-1,2,4-triazole-3-thione], the melting point was found to be 251.9 °C. The compound further returned a CC30 in series [1] of 144.94 µg/mL (≈ 424 µM). For the same compound, in series [2], the IC50 was 61.7 µg/mL (≈ 181 µM) and the SI was 2.35.

Turning to `Cc1nc[nH]c1-c1n[nH]c(=S)n1-c1ccc(N(C)C)cc1` [25b, 5–(4-methylimidazol-5-yl)-4–(4-dimethyloaminophenyl)-1,2,4-triazole-3-thione], the melting point amounted to 288.2 °C. Also, in series [1], the CC30 is given as 755.61 µg/mL (≈ 2520 µM). Moreover, in series [2], the IC50 is 285 µg/mL (≈ 950 µM) and the SI is reported as 2.65.

Consider `CCN(CC)c1ccc(-n2c(-c3[nH]cnc3C)n[nH]c2=S)cc1` [26b, 4–(4-diethylaminophenyl)-5–(4-methylimidazol-5-yl)-1,2,4-triazole-3-thione], for which the melting point was determined as 147 °C. In series [1], this compound had a CC30 of 230.94 µg/mL (≈ 703 µM). Also, in series [2], the IC50 is 157 µg/mL (≈ 478 µM) and the SI turned out to be 1.47.

`Cc1nc[nH]c1-c1n[nH]c(=S)n1Cc1ccccc1` [27b, 4-benzyl-5–(4-methylimidazol-5-yl)-1,2,4-triazole-3-thione] displayed a melting point of 229.5 °C. Besides, the CC30 in series [1] turned out to be 425.30 µg/mL (≈ 1570 µM). For the same compound, in series [2], the IC50 was 148 µg/mL (≈ 545 µM) and the SI turned out to be 2.87.
